The test system of experiment [1] is T-cell. Briefly: In vitro inhibition of human T-cell proliferation. In kind it is functional, cell-based.
The subject of experiment [2] is T-cell. Briefly: Cytotoxicity measured against human T-cells. The class given is functional.

Where a SMILES comes first, the peptide text is derived from it. The star is where a group is joined. Phenanthrenequinone2carbonyl = O=C1C(=O)c2cc(C(=O)*)ccc2-c2ccccc21; X1 = O=C1C(=O)c2cc(N*)ccc2-c2ccccc21

With `O=C1C(=O)c2ncccc2-c2ccccc21`, 0.4 µM corresponded to half-maximal inhibition with T-cell [1] (IC50). Also, the midpoint of cytotoxicity in the experiment on T-cell [2], the CC50, lay at 7 µM.
Take `O=C1C=C(c2cc(Cl)cc(Cl)c2)c2ccccc2C1=O`: the IC50 – broadly, the midpoint of a concentration-inhibition curve – with T-cell [1] stood at 0.3 µM. The cytotoxic concentration (CC50) (usually the concentration at which the toxic effect on the cells reaches its halfway point) in the experiment on T-cell [2] is 5.5 µM.
The like results for `O=C1C=C(c2c(-c3ccccc3)[nH]c3ccccc23)c2ccccc2C1=O` were, in that order, 2.2 µM and 16 µM.
The like results for `CCOc1ccccc1-c1ccc2c(c1)C(=O)C(=O)c1ccccc1-2` were, in that order, 0.7 µM and greater than 30 µM.
The corresponding values for `O=C1C(=O)c2cc([N+](=O)[O-])ccc2-c2ccc([N+](=O)[O-])cc21` are 0.5 µM and 8 µM.
In the experiment on T-cell [1], `O=C(O)c1ccc2c(c1)C(=O)C(=O)c1ccccc1-2` had a concentration for half-maximal inhibition (IC50) greater than 30 µM. The CC50 in the experiment with T-cell [2] is greater than 30 µM.
As to `O=C1C=C(c2ccccc2Cl)c2ccccc2C1=O`, the half-inhibitory concentration (IC50) in the experiment on T-cell [1] was 0.3 µM. In the experiment with T-cell [2], this compound had a half-maximal cytotoxic concentration (CC50) of 12.4 µM.
Compound `O=C(O)CNC(=O)c1ccc2c(c1)-c1ccccc1C(=O)C2=O` registered an IC50 in the experiment on T-cell [1] of 6.5 µM. The cytotoxic concentration (CC50) in the experiment on T-cell [2] was greater than 30 µM.
In the experiment on T-cell [1], `O=C(O)c1ccc2c(c1)-c1ccccc1C(=O)C2=O` showed an IC50 greater than 30 µM.
Compound `O=C1C(=O)c2cc([N+](=O)[O-])ccc2-c2ccccc21` had an IC50 with T-cell [1] of 1.6 µM. For the same compound, the CC50 in the experiment on T-cell [2] is 10 µM.
As to `Nc1cccc2c1-c1ccccc1C(=O)C2=O`, half-maximal inhibition in the experiment on T-cell [1] (IC50) was put at 0.2 µM. The compound also displayed a CC50 in the experiment on T-cell [2] of 9 µM.
Consider `Cn1cc(C2=CC(=O)C(=O)c3ccccc32)c2ccccc21`, for which the half-inhibitory concentration (IC50) in the experiment with T-cell [1] was determined as 1.5 µM. The CC50 in the experiment on T-cell [2] is greater than 30 µM.
In turn, `O=C1C(=O)c2cccc([N+](=O)[O-])c2-c2ccccc21` yielded a CC50 in the experiment on T-cell [2] of 10 µM.
`COC(=O)CCCC(=O)Nc1ccc2c(c1)-c1ccccc1C(=O)C2=O`: the IC50 in the experiment on T-cell [1] turned out to be 1.6 µM. The compound also came in with a half-maximal cytotoxic concentration (CC50) in the experiment on T-cell [2] of 9 µM.
`O=C1C=C(c2cccc([N+](=O)[O-])c2)c2ccccc2C1=O` showed a half-maximal inhibitory concentration (IC50) in the experiment with T-cell [1] of 0.4 µM. This compound also yielded a CC50 with T-cell [2] of 4 µM.
Compound `CCOC1=CC(=O)C(=O)c2ccccc21` came in with an IC50 with T-cell [1] greater than 30 µM. In the experiment with T-cell [2], the CC50 was greater than 30 µM.
With `O=C1C(=O)c2ccc([N+](=O)[O-])cc2-c2ccccc21`, the IC50 in the experiment on T-cell [1] amounted to 0.2 µM. In the experiment with T-cell [2], the CC50 was determined as 2.8 µM.
`C=CCOC1=CC(=O)C(=O)c2ccccc21` gave an IC50 in the experiment with T-cell [1] greater than 30 µM. In the experiment on T-cell [2], the CC50 is greater than 30 µM.
In the experiment on T-cell [1], `O=C1C=Cc2ccc(O)cc2C1=O` came in with a half-inhibitory concentration (IC50) greater than 30 µM. In the experiment on T-cell [2], this compound showed a CC50 greater than 30 µM.
In the experiment on T-cell [1], `CCCC(=O)Nc1ccc2c(c1)C(=O)C(=O)c1ccccc1-2` yielded an IC50 of 1.1 µM. In the experiment on T-cell [2], this compound came in with a cytotoxic concentration (CC50) of 8.2 µM.
Compound `O=C1C(=O)c2ccc(NC(=O)c3ccccc3C(F)(F)F)cc2-c2ccccc21` showed a CC50 in the experiment with T-cell [2] of 14 µM.
Take `O=C1C=C(c2ccccc2)c2ccccc2C1=O`: the midpoint of inhibition in the experiment on T-cell [1], the IC50, lay at 0.2 µM. This compound also showed a CC50 in the experiment on T-cell [2] of 12 µM.
The like results for `O=C1C=Cc2cc(C(=O)c3ccccc3)ccc2C1=O` were, in that order, 11 µM and greater than 30 µM.
The compound `O=C1C(=O)c2cc(-c3ccsc3)ccc2-c2ccccc21` yielded an IC50 in the experiment on T-cell [1] of 1.7 µM. In the experiment with T-cell [2], this compound registered a CC50 of 7.3 µM.
The like results for `COC(=O)c1ccc2c(c1)C=CC(=O)C2=O` were, in that order, 7.1 µM and greater than 30 µM.
In the experiment on T-cell [2], `COC(=O)c1cccc2c1C=CC(=O)C2=O` came in with a CC50 greater than 30 µM.
On the same count and under the same terms, the same measure for `COC(=O)CCC(=O)Nc1ccc2c(c1)-c1ccccc1C(=O)C2=O`: 18 µM; for `Nc1ccc2c(c1)-c1ccccc1C(=O)C2=O`: 17 µM.
`O=C1C(=O)c2cc(-c3ccc4c(c3)OCO4)ccc2-c2ccccc21`: half-maximal inhibition in the experiment on T-cell [1] (IC50) required 1.7 µM. The compound further registered a half-maximal cytotoxic concentration (CC50) in the experiment with T-cell [2] of 5 µM.
The corresponding values for `Nc1cccc2c1C(=O)C(=O)c1ccccc1-2` are 7.8 µM and 9.6 µM.
`O=C1C=C(Br)c2ccccc2C1=O` had a half-inhibitory concentration (IC50) in the experiment on T-cell [1] of 22 µM. In the experiment with T-cell [2], this compound gave a half-maximal cytotoxic concentration (CC50) greater than 30 µM.
Take `O=C1C(=O)c2ccsc2-c2ccccc21`: in the experiment on T-cell [2], half-maximal cytotoxicity (CC50) was put at 3.5 µM.
In the experiment on T-cell [1], `Cc1ccc(S(=O)(=O)Nc2ccc3c(c2)C(=O)C(=O)c2ccccc2-3)cc1` registered an IC50 of 6.4 µM. Further, the CC50 with T-cell [2] was greater than 30 µM.
With `Cc1ccc(S(=O)(=O)N(c2ccc3c(c2)C(=O)C(=O)c2ccccc2-3)S(=O)(=O)c2ccc(C)cc2)cc1`, in the experiment on T-cell [2], the CC50 was 5.3 µM.
In the experiment with T-cell [1], `O=C1C=C(c2ccc(Br)cc2)c2ccccc2C1=O` registered an IC50 of 0.2 µM. This compound also returned a CC50 with T-cell [2] of 3 µM.
In the experiment with T-cell [1], `CC(=O)N[C@@H](C)C(=O)N[C@H](C(=O)N[C@@H](CCC(=O)O)C(=O)NCC(=O)N[C@@H](CCC(N)=O)C(=O)N[C@@H](CC(=O)Nc1ccc2c(c1)C(=O)C(=O)c1ccccc1-2)C(=O)O)[C@@H](C)O` (Ac-ATEGQD(X1)-OH) returned an IC50 of 21.4 µM.
Still for that read-out and setting: then `CC(=O)N[C@@H](Cc1ccccc1)C(=O)N[C@H](C(=O)N[C@@H](C)C(=O)N[C@H](C(=O)N[C@@H](CCC(=O)O)C(=O)NCC(=O)N[C@@H](CCC(N)=O)C(=O)N[C@@H](CC(=O)Nc1ccc2c(c1)C(=O)C(=O)c1ccccc1-2)C(=O)O)[C@@H](C)O)[C@@H](C)O` (Ac-FTATEGQD(X1)-OH), with greater than 30 µM; and `CC(=O)N[C@H](C(=O)N[C@@H](C)C(=O)N[C@H](C(=O)N[C@@H](CCC(=O)O)C(=O)NCC(=O)N[C@@H](CCC(N)=O)C(=O)N[C@@H](CC(=O)Nc1ccc2c(c1)C(=O)C(=O)c1ccccc1-2)C(=O)O)[C@@H](C)O)[C@@H](C)O` (Ac-TATEGQD(X1)-OH), with 23 µM.
Regarding `O=C(O)CC[C@H](NC(=O)c1ccc2c(c1)C(=O)C(=O)c1ccccc1-2)C(=O)N[C@@H](CCC(=O)O)C(=O)N1CCC[C@H]1C(=O)N[C@@H](CCC(=O)O)C(=O)NCC(=O)O` (Phenanthrenequinone2carbonyl-EEPEG-OH), the concentration for half-maximal inhibition (IC50) with T-cell [1] is 14.2 µM. This compound also gave a CC50 in the experiment with T-cell [2] greater than 30 µM.
In the case of `N=C(N)NCCC[C@H](NC(=O)[C@@H]1CCCN1C(=O)[C@H](CCC(=O)O)NC(=O)[C@H](CCC(=O)O)NC(=O)c1ccc2c(c1)C(=O)C(=O)c1ccccc1-2)C(=O)NCC(=O)O` (Phenanthrenequinone2carbonyl-EEPRG-OH), in the experiment with T-cell [1], it took 16 µM to reach half-maximal inhibition (IC50). In the experiment with T-cell [2], this compound returned a cytotoxic concentration (CC50) greater than 30 µM.
As to `O=C(O)CC[C@H](NC(=O)c1ccc2c(c1)C(=O)C(=O)c1ccccc1-2)C(=O)NCC(=O)N1CCC[C@H]1C(=O)N[C@@H](CCC(=O)O)C(=O)NCC(=O)O` (Phenanthrenequinone2carbonyl-EGPEG-OH), half-maximal inhibition in the experiment with T-cell [1] (IC50) required 8.8 µM. In addition, the CC50 in the experiment with T-cell [2] was greater than 30 µM.
The corresponding values for `N=C(N)NCCC[C@H](NC(=O)[C@@H]1CCCN1C(=O)CNC(=O)[C@H](CCC(=O)O)NC(=O)c1ccc2c(c1)C(=O)C(=O)c1ccccc1-2)C(=O)NCC(=O)O` (Phenanthrenequinone2carbonyl-EGPRG-OH) are 23 µM and greater than 30 µM.
The corresponding values for `N=C(N)NCCC[C@H](NC(=O)[C@H](CCC(=O)O)NC(=O)c1ccc2c(c1)C(=O)C(=O)c1ccccc1-2)C(=O)N1CCC[C@H]1C(=O)N[C@@H](CCC(=O)O)C(=O)NCC(=O)O` (Phenanthrenequinone2carbonyl-ERPEG-OH) are 3 µM and greater than 30 µM.
For `N=C(N)NCCC[C@H](NC(=O)[C@@H]1CCCN1C(=O)[C@H](CCCNC(=N)N)NC(=O)[C@H](CCC(=O)O)NC(=O)c1ccc2c(c1)C(=O)C(=O)c1ccccc1-2)C(=O)NCC(=O)O` (Phenanthrenequinone2carbonyl-ERPRG-OH), inhibition in the experiment on T-cell [1] was half-maximal at 19 µM (IC50). This compound also came in with a half-maximal cytotoxic concentration (CC50) in the experiment with T-cell [2] greater than 30 µM.
The like results for `O=C(O)CC[C@H](NC(=O)[C@@H]1CCCN1C(=O)[C@H](CCC(=O)O)NC(=O)CNC(=O)c1ccc2c(c1)C(=O)C(=O)c1ccccc1-2)C(=O)NCC(=O)O` (Phenanthrenequinone2carbonyl-GEPEG-OH) were, in that order, 9 µM and greater than 30 µM.
The like results for `N=C(N)NCCC[C@H](NC(=O)[C@@H]1CCCN1C(=O)[C@H](CCC(=O)O)NC(=O)CNC(=O)c1ccc2c(c1)C(=O)C(=O)c1ccccc1-2)C(=O)NCC(=O)O` (Phenanthrenequinone2carbonyl-GEPRG-OH) were, in that order, 20 µM and greater than 30 µM.
Regarding `O=C(O)CC[C@H](NC(=O)[C@@H]1CCCN1C(=O)CNC(=O)CNC(=O)c1ccc2c(c1)C(=O)C(=O)c1ccccc1-2)C(=O)NCC(=O)O` (Phenanthrenequinone2carbonyl-GGPEG-OH), in the experiment with T-cell [1], the IC50 came to 19.3 µM. Besides, the half-maximal cytotoxic concentration (CC50) in the experiment with T-cell [2] was greater than 30 µM.
The corresponding values for `N=C(N)NCCC[C@H](NC(=O)[C@@H]1CCCN1C(=O)CNC(=O)CNC(=O)c1ccc2c(c1)C(=O)C(=O)c1ccccc1-2)C(=O)NCC(=O)O` (Phenanthrenequinone2carbonyl-GGPRG-OH) are 16 µM and greater than 30 µM.
As to `N=C(N)NCCC[C@H](NC(=O)CNC(=O)c1ccc2c(c1)C(=O)C(=O)c1ccccc1-2)C(=O)N1CCC[C@H]1C(=O)N[C@@H](CCC(=O)O)C(=O)NCC(=O)O` (Phenanthrenequinone2carbonyl-GRPEG-OH), the IC50 in the experiment with T-cell [1] amounted to 5.5 µM. Also, the CC50 with T-cell [2] was greater than 30 µM.
The corresponding values for `N=C(N)NCCC[C@H](NC(=O)[C@@H]1CCCN1C(=O)[C@H](CCCNC(=N)N)NC(=O)CNC(=O)c1ccc2c(c1)C(=O)C(=O)c1ccccc1-2)C(=O)NCC(=O)O` (Phenanthrenequinone2carbonyl-GRPRG-OH) are greater than 30 µM and greater than 30 µM.
The corresponding values for `N=C(N)NCCC[C@H](NC(=O)c1ccc2c(c1)C(=O)C(=O)c1ccccc1-2)C(=O)N[C@@H](CCC(=O)O)C(=O)N1CCC[C@H]1C(=O)N[C@@H](CCC(=O)O)C(=O)NCC(=O)O` (Phenanthrenequinone2carbonyl-REPEG-OH) are 5 µM and greater than 30 µM.
As for `N=C(N)NCCC[C@H](NC(=O)c1ccc2c(c1)C(=O)C(=O)c1ccccc1-2)C(=O)NCC(=O)N1CCC[C@H]1C(=O)N[C@@H](CCC(=O)O)C(=O)NCC(=O)O` (Phenanthrenequinone2carbonyl-RGPEG-OH), the IC50 in the experiment on T-cell [1] amounted to 3.3 µM. In the experiment on T-cell [2], the CC50 was greater than 30 µM.
For the compound `N=C(N)NCCC[C@H](NC(=O)c1ccc2c(c1)C(=O)C(=O)c1ccccc1-2)C(=O)NCC(=O)N1CCC[C@H]1C(=O)N[C@@H](CCCNC(=N)N)C(=O)NCC(=O)O` (Phenanthrenequinone2carbonyl-RGPRG-OH), the 50% inhibitory concentration (IC50) with T-cell [1] was determined as 14 µM. Further, in the experiment with T-cell [2], the CC50 was greater than 30 µM.
The corresponding values for `N=C(N)NCCC[C@H](NC(=O)c1ccc2c(c1)C(=O)C(=O)c1ccccc1-2)C(=O)N[C@@H](CCCNC(=N)N)C(=O)N1CCC[C@H]1C(=O)N[C@@H](CCC(=O)O)C(=O)NCC(=O)O` (Phenanthrenequinone2carbonyl-RRPEG-OH) are 11 µM and greater than 30 µM.

These data come from ChEMBL document CHEMBL1134488, “Potent reversible inhibitors of the protein tyrosine phosphatase CD45” (J Med Chem, 2001).
